Source: patent US11065296B2, “Antimicrobial peptide, its analog and use” (City University of Hong Kong, priority 2018, dated 2021)
Peptide text beside a SMILES is read from it.

Columns and labels:
Type in all cases: cell-based
[1] = tested on: Streptococcus Faecalis
Description: (§1) MIC denotes the lowest concentration of an antimicrobial agent that can inhibit the growth of bacteria after overnight incubation.
(§2) Bacteria were grown in their respective media (Table 2 above) overnight at 37° C. or room temperature with constant shaking and then diluted to 10^6 CFU/ml in their respective medium. Stock solutions of peptides at 0.68 mM were prepared in distilled water. Bacteria and peptide were incubated (50 μl: 50 μl) to make the final peptide concentrations (0.68, 3.4, 6.8, 13.7, 34.1, 68.3, 136.5 μM) in a 96-microtitre plate and incubated for 24 h with constant shaking. […] Absorbance at 600 nm was detected every 3 h up to 24 h to obtain the growth curves. The minimal inhibition concentration (MIC) was defined as the lowest concentration of an antimicrobial agent that could inhibit the growth of bacteria after overnight incubation.

[2] = tested on: Staphylococcus aureus ATCC 29213
Description: as §1, §2

[3] = tested on: Vibrio alginolyticus ATCC 33840
Description: as §1, §2

[4] = tested on: Multidrug-resistant S. aureus ATCC BAA-44
Description: as §1, §2

[5] = tested on: Staphylococcus epidermidis ATCC 12228
Description: as §1, §2

[6] = tested on: Pseudomonas aeruginosa A
[7] = tested on: E. coli
[8] = tested on: CpxR; assay: Quantitative real-time PCR; details: E. coli
Description: Each group has 6 biological replicates. […] Gene-specific primers were designed with Primer-BLAST (NCBI).

CC[C@H](C)[C@H](N)C(=O)N[C@@H](CCCNC(=N)N)C(=O)N[C@H](C(=O)N[C@H](C(=O)N[C@@H](CC(C)C)C(=O)N[C@@H](CCCNC(=N)N)C(=O)N[C@@H](C)C(=O)N[C@@H](CCC(N)=O)C(=O)NCC(=O)N[C@@H](C)C(=O)N[C@@H](CC(C)C)C(=O)N[C@@H](CCCCN)C(=O)N[C@H](C(=O)O)[C@@H](C)CC)[C@@H](C)CC)[C@@H](C)CC [Peptide A, IRIILRAQGALKI] (H-IRIILRAQGALKI-OH; N-terminus and C-terminus assumed)
MICs [1]: 34.1 µM
MICs [2]: 64 µM
MICs [3]: 34.1 µM
MICs [4]: 21.8 µM
MICs [5]: 2.7 µM
MICs [6]: 34.1 µM
MIC for E. coli [7]: 3.4 µM
CpxR expression [8]: inhibition of CpxR
